In the CheMixHub viscosity set:
± gives the uncertainty stated by the source.

Assay: xn = mol fraction of the nth substance listed

CCCCBr + CC(C)(C)O
viscosity [mPa·s], 101.33 kPa
Conditions	x2 = 0.0988	x2 = 0.197	x2 = 0.3014	x2 = 0.4101	x2 = 0.5017	x2 = 0.5982	x2 = 0.7029	x2 = 0.7982	x2 = 0.8931
298.15 K	0.597 ± 0.009	0.612 ± 0.009	0.643 ± 0.009	0.692 ± 0.009	0.798 ± 0.011	0.926 ± 0.012	1.148 ± 0.014	1.509 ± 0.019	2.232 ± 0.027
303.15 K	0.564 ± 0.008	0.576 ± 0.008	0.602 ± 0.008	0.642 ± 0.009	0.736 ± 0.01	0.839 ± 0.011	1.018 ± 0.013	1.302 ± 0.016	1.841 ± 0.022
308.15 K	0.534 ± 0.008	0.54 ± 0.008	0.563 ± 0.008	0.598 ± 0.008	0.679 ± 0.009	0.763 ± 0.01	0.909 ± 0.012	1.134 ± 0.014	1.543 ± 0.019
313.15 K	0.508 ± 0.007	0.511 ± 0.007	0.529 ± 0.008	0.557 ± 0.008	0.632 ± 0.009	0.7 ± 0.009	0.817 ± 0.011	0.995 ± 0.013	1.311 ± 0.016
318.15 K	0.494 ± 0.007	0.482 ± 0.007	0.497 ± 0.007	0.521 ± 0.007	0.581 ± 0.008	0.638 ± 0.009	0.737 ± 0.01	0.882 ± 0.011	1.127 ± 0.014

CCC(=O)[O-].CC[N+]1(C)CCOCC1 + O
viscosity [mPa·s], 100 kPa
Conditions	x1 = 0.0672	x1 = 0.1305	x1 = 0.2131	x1 = 0.2851	x1 = 0.4005	x1 = 0.5397	x1 = 0.6231	x1 = 0.7436
298.15 K	4.98 ± 0.52	16.4 ± 1.7	50.3 ± 5.1	98.7 ± 10	318 ± 38	1237 ± 180	2366 ± 370	–
303.15 K	4.23 ± 0.43	13.2 ± 1.3	38.8 ± 3.9	74.6 ± 7.6	223 ± 25	796 ± 110	1660 ± 250	–
308.15 K	3.64 ± 0.37	11.2 ± 1.1	30.6 ± 3.1	57.2 ± 5.8	160 ± 17	530 ± 66	1149 ± 160	–
313.15 K	3.16 ± 0.32	9.32 ± 0.94	24.5 ± 2.5	44.6 ± 4.5	119 ± 12	366 ± 43	786 ± 100	2582 ± 410
318.15 K	2.76 ± 0.28	7.58 ± 0.76	20 ± 2	35.4 ± 3.6	89.3 ± 9.1	258 ± 29	543 ± 68	1792 ± 270
323.15 K	2.44 ± 0.25	6.46 ± 0.65	16.5 ± 1.7	28.7 ± 2.9	69.1 ± 7	187 ± 20	372 ± 44	1137 ± 160

CC(=O)OCC(C)C + CCc1ccccc1
viscosity [mPa·s], 101 kPa
Conditions	x1 = 0.0948	x1 = 0.1767	x1 = 0.2601	x1 = 0.3586	x1 = 0.4735	x1 = 0.5727	x1 = 0.7004	x1 = 0.7989	x1 = 0.8805	x1 = 0.9463
303.15 K	0.596 ± 0.011	0.597 ± 0.011	0.599 ± 0.011	0.602 ± 0.011	0.606 ± 0.011	0.61 ± 0.011	0.616 ± 0.011	0.623 ± 0.011	0.63 ± 0.011	0.635 ± 0.011
313.15 K	0.527 ± 0.011	0.528 ± 0.011	0.529 ± 0.011	0.53 ± 0.011	0.534 ± 0.011	0.539 ± 0.011	0.545 ± 0.011	0.552 ± 0.011	0.559 ± 0.011	0.569 ± 0.011

CCCCBr + CC(C)CO
viscosity [mPa·s], 101.33 kPa
Conditions	x2 = 0.101	x2 = 0.2014	x2 = 0.308	x2 = 0.4025	x2 = 0.5066	x2 = 0.61	x2 = 0.7006	x2 = 0.8004	x2 = 0.8984
298.15 K	0.626 ± 0.009	0.671 ± 0.009	0.743 ± 0.01	0.83 ± 0.011	0.98 ± 0.013	1.196 ± 0.015	1.436 ± 0.018	1.845 ± 0.022	2.449 ± 0.029
308.15 K	0.549 ± 0.008	0.576 ± 0.008	0.624 ± 0.009	0.682 ± 0.009	0.783 ± 0.01	0.934 ± 0.012	1.1 ± 0.014	1.387 ± 0.017	1.807 ± 0.022
318.15 K	0.492 ± 0.007	0.512 ± 0.007	0.555 ± 0.008	0.593 ± 0.008	0.664 ± 0.009	0.774 ± 0.01	0.895 ± 0.012	1.098 ± 0.014	1.389 ± 0.017

CCCC(C)O (stereo not drawn) + CC(=O)N(C)C
viscosity [mPa·s], 100 kPa
Conditions	298.15 K	313.15 K
x2 = 0.0565	2.917 ± 0.12	1.821 ± 0.074
x2 = 0.1029	2.592 ± 0.11	1.693 ± 0.068
x2 = 0.2137	2.057 ± 0.083	1.432 ± 0.058
x2 = 0.3057	1.757 ± 0.071	1.276 ± 0.052
x2 = 0.409	1.528 ± 0.062	1.145 ± 0.046
x2 = 0.5031	1.387 ± 0.056	1.053 ± 0.043
x2 = 0.6045	1.255 ± 0.051	0.971 ± 0.039
x2 = 0.7015	1.158 ± 0.047	0.904 ± 0.037
x2 = 0.7996	1.068 ± 0.043	0.842 ± 0.034
x2 = 0.9005	0.987 ± 0.04	0.784 ± 0.032
x2 = 0.9581	0.943 ± 0.038	–
